Data from article PMC7449170, “ATI-2173, a Novel Liver-Targeted Non-Chain-Terminating Nucleotide for Hepatitis B Virus Cure Regimens” (Antimicrobial Agents and Chemotherapy, 2020).

Experiments:
[1] = test system: HBV genotype C (AB246345); test: microbe, parasite or virus in culture; type: cell-based; settings: Hepatitis B virus, HepG2
[2] = test system: HBV genotype D (U955551); test: microbe, parasite or virus in culture; type: cell-based; settings: Hepatitis B virus, HepG2
[3] = test system: HBV genotype E (AB091255); test: microbe, parasite or virus in culture; type: cell-based; settings: Hepatitis B virus, HepG2
[4] = test system: HBV genotype H (AB179747); test: microbe, parasite or virus in culture; type: cell-based; settings: Hepatitis B virus, HepG2
[5] = test system: HBV rtM204I; test: microbe, parasite or virus in culture; type: cell-based; settings: Hepatitis B virus, HepG2
[6] = test system: HBV rtV173L+M204I; test: microbe, parasite or virus in culture; type: cell-based; settings: Hepatitis B virus, HepG2
[7] = test system: HBV rtN236T; test: microbe, parasite or virus in culture; type: cell-based; settings: Hepatitis B virus, HepG2
[8] = test system: hepatitis C virus; test: Antiviral panel: hepatitis C virus; type: cell-based; settings: up to 100 μM, data not shown
[9] = test system: herpes simplex virus 1; test: Antiviral panel: herpes simplex virus 1; type: cell-based; settings: up to 100 μM, data not shown
[10] = Protein binding; type: in vitro ADME; settings: data not shown
[11] = Pharmacokinetics and tissue concentration in rats after single oral dose; type: in vivo, Sprague-Dawley rats; settings: single oral 50 mg/kg ATI-2173 vs 25 mg/kg clevudine
Experimental: Female Sprague Dawley (SD) rats (from Envigo, NJ), 225 to 249 g, were used in the studies. Clevudine and ATI-2173 were administered by oral gavage (p.o.) in carboxyl methyl cellulose/PEG 400/Tween 20 (0.5%/20%/5%). The oral doses were administered at 25 mg/kg and 50 mg/kg, respectively. Blood samples were collected at 1, 2, 4, 6, 8, and 24 h into lithium-heparin microtainer tubes (BD). Plasma samples were prepared within 30 min after collection by centrifugation at 2,000× rcf for 10 min at 4°C and stored at –80°C before processing for analysis by liquid chromatography-tandem mass spectrometry (LC-MS/MS). Rat organs (skeletal muscle, liver, and heart) were collected from all rats immediately following blood collection at all time points. The tissues were immediately snap-frozen in liquid nitrogen and stored at –80°C before processing for analysis by LC-MS/MS. […]
Samples were maintained at 4°C in a Leap Pal Autosampler (CTC Analytics AG, Zwingen, Switzerland). Plasma concentrations of ATI-2173 and clevudine were determined using qualified methods with an assay range of 10 to 1,000 ng/ml. […] QCs were prepared at 30, 500, and 900 ng/ml and were measured within ± 30% of actual values. […]
Tissue levels were measured according to qualified LC-MS/MS methods with an assay range of 18 to 18,000 ng/g of tissue. […]

[12] = Hepatic extraction in portal vein cannulated monkeys; type: in vivo; settings: cynomolgus monkeys with portal vein cannulation, single oral 20 mg/kg and intravenous 2 mg/kg, data not shown
[13] = test system: HBV genotype D; test: microbe, parasite or virus in culture; settings: Hepatitis B virus, Hepatocyte, 192 h, read-out: EC50, HBV DNA
Experimental: HBV genotype D was concentrated from HepDE19 culture supernatants (2.53 × 10^10 genome equivalents [GE]/ml) and provided by WuXi. On day 0, hepatocytes were seeded into a 48-well plate at a density of 1.32 × 10^5 cells/well. On day 1, hepatocytes were infected with 200 HBV GE/cell and were cultured at 37°C and 5% CO2. […] On day 8, the culture supernatants were collected and HBV DNA was harvested with QIAamp 96 DNA blood kit (Qiagen, 51162).

[14] = test system: HepG2 cells; test: Mitochondrial toxicity, glucose/galactose assay; settings: 20 mM glucose or 10 mM galactose, up to 100 μM, day 11
[15] = test system: HK-2 human kidney cells; test: Cytotoxicity in HK-2 kidney cells (CellTiter-Glo); settings: up to 100 μM, 72 h
Experimental: (§1) HK-2 human kidney cells were obtained from ATCC (Manassas, VA) and cultured in Gibco Keratinocyte serum-free medium (Thermo Fisher Scientific, Waltham, MA) supplemented with 10% FBS (Peak Serum, Wellington, CO). Human skeletal muscle cells were obtained from Lonza (Walkersville, MD) and cultured in SkGM-2 skeletal muscle cell growth medium-2 (Lonza). Both HK-2 and skeletal muscle cells were cultured humidified at 37°C and 5% CO2. Cryopreserved human primary hepatocytes and medium were received from Lonza. Cryopreserved iCell cardiomyocytes and cardiomyocyte medium were purchased from Stem Cell Technologies (Vancouver, BC, Canada). Cryopreserved human bone marrow mononuclear cells were purchased from Lonza with HemaTox Myeloid medium purchased from [sequence] […] All cryopreserved cells (human primary hepatocytes, iCell cardiomyocytes, and human bone marrow mononuclear cells) were stored in vapor phase liquid nitrogen until the day of plating. […] Serial dilutions of compounds in DMSO were as follows: 100, 10, 1, 0.1, 0.01, 0.001, 0.0001, and 0.00001 μM (final concentration of DMSO in medium was 0.5%). […]
(§2) Following incubation, cells were dosed and incubated for 72 h at 37°C and 5% CO2. Following incubation, the endpoint cell viability CellTiter-Glo 2.0 assay (Promega, San Luis Obispo, CA) was performed and luminescence data collected on a Synergy 4 plate reader (Biotek, Winooski, VT). […]

[16] = Cell viability (CC50) in primary human hepatocytes
[17] = test system: iCell cardiomyocytes; test: Cytotoxicity in iCell cardiomyocytes (CellTiter-Glo); settings: up to 100 μM, 72 h
Experimental: as §1, §2

[18] = test system: cryopreserved primary human hepatocytes; test: Cytotoxicity in primary human hepatocytes (CellTiter-Glo); settings: up to 100 μM, 72 h
Experimental: as §1, §2

Compound `Cc1cn(C2OC(COP(=O)(NC(C)C(=O)OC(C)C)Oc3ccccc3)C(O)C2F)c(=O)[nH]c1=O` (stereo not drawn) [ATI-2173] has an EC50 [1] of 227 nM, an EC50 [2] of 234 nM and an EC50 [3] of 427 nM. It also gave an EC50 [4] of 718 nM, an EC50 [5] greater than 10000 nM and an EC50 [6] greater than 10000 nM. The EC50 [7] was 386 nM, the Antiviral efficacy [8] was “no detectable efficacy” and the Antiviral efficacy [9] was “no detectable efficacy”. For the same compound, the fraction unbound [10] was roughly 0.45, the “Liver exposure to the 5′-triphosphate versus equimolar clevudine” value [11] was “nearly identical liver exposure” and the Hepatic extraction [12] was 82%. The EC50 [13] was 1.31 nM, the “Mitochondrial toxicity (cell viability in glucose versus galactose medium)” value [14] was “no apparent mitochondrial toxicity” and the Cytotoxicity [15] was “did not demonstrate any cytotoxicity”. For the same compound, the CC50 [16] was greater than 20 nM, the Cytotoxicity [17] was “did not demonstrate any cytotoxicity” and the Cytotoxicity [18] was “did not demonstrate any cytotoxicity”.
